Experimental data reported in US11299493B2, “Heterocyclic compounds and uses thereof” (NUVATION BIO INC., priority 2017, dated 2022).

How the values were obtained:
[1] = biological target: WEE1 kinase enzyme (Homo sapiens (Human), UniProt P30291); experiment: WEE1 IC50 determination, LanthaScreen Terbium Labeled TR-FRET kinase assay; assay type: biochemical; conditions: WEE1 enzyme 1 nM, ATP 10 μM, 1 h
Protocol: IC50 values of compounds against WEE1 kinase enzyme were determined by LanthaScreen™ Terbium Labeled TR-FRET assay. […] After 1 h, […] stop solution containing Terbium labeled antibody (4 nM) (#PV3529, Invitrogen, Life Technologies Grand Island, N.Y.) and EDTA (#E5134, Sigma, St-Louis, Mo.) (20 mM) in TR-FRET dilution buffer (#PV3574, Invitrogen, Life Technologies Grand Island, N.Y.) was added. Readings were taken in a Synergy Neo Plate reader (BioTek, Winooski) at single excitation of 340 nm and Dual emission at 495 nm and 520 nm respectively.
The % activity of test samples was calculated as (Sample−Min)*100/(Max−Min). [Max: DMSO control, complete reaction with enzyme & DMSO and Min: No enzyme & DMSO].

[2] = system: A549 cells; experiment: Cytotoxicity assay (resazurin) in A549 cells; assay type: cell-based; conditions: Homo sapiens, A549, 96 hr, read-out: Cell Viability IC50 A549
Protocol: (§1) Cells were allowed to grow at 37° C. for 24 hr in 5% CO2 environment (culture conditions) in a Nuaire incubator (humidified). Serially diluted test compounds (100 μL) within the desired testing concentration ranges were added to the culture plate were further incubated in culture conditions for 72 hr and 96 hr for A427 and A549 respectively. The experiment was terminated at the designated incubation time by replacing the medium with 100 μL of 1 mM of resazurin (R7017; Sigma) prepared in respective culture medium, and the plates were further incubated in culture conditions for 4-6 hr. Fluorescence was recorded using a multimodal plate reader (Biotek Synergy Neo) at an excitation wavelength of 535 nm and emission wavelength of 590 nm to obtain relative fluorescence units. Data analysis was done by subtracting the background fluorescence (only medium blank) value from each reading and then normalizing with the vehicle control (DMSO treated cells) to obtain percent survival/proliferation. Percent survival was then subtracted by 100 to get the percent inhibition of proliferation which was used to calculate IC50 values.

[3] = system: A427 cells; experiment: Cytotoxicity assay (resazurin) in A427 cells; assay type: cell-based; conditions: Homo sapiens, A-427, 72 h, A427, 72 hr, read-out: Cell Viability IC50 A427
Protocol: as §1

Chain of WEE1 kinase enzyme (P30291 whole entry): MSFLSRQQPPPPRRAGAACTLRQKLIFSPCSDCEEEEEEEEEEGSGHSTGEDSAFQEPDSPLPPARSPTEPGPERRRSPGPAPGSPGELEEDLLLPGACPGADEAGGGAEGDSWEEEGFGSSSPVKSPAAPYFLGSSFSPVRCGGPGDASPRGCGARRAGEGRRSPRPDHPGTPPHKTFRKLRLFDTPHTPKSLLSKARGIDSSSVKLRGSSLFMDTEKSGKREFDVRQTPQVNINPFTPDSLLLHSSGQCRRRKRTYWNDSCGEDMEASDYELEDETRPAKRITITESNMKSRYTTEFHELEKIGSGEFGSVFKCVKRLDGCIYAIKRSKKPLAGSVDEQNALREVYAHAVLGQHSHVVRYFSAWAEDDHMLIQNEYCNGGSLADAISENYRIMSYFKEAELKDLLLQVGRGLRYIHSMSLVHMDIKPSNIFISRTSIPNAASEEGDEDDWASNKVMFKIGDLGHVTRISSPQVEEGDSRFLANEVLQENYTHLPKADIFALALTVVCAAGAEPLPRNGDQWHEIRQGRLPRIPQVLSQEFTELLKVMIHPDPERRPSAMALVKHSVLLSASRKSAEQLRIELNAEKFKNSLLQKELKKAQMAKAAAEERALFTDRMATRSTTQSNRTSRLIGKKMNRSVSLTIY

SMILES | IC50 [1] [nM] | IC50 [2] [nM] | IC50 [3] [nM]
C=CCn1c(=O)c2cnc(Nc3ccc4c(c3)CCNC4)nc2n1-c1cccc(C(C)(C)O)n1 [Example 1.8] | 1 | 545 | –
C=CCn1c(=O)c2cnc(Nc3ccc4c(c3)CN(C)CC4)nc2n1-c1cccc(C(C)(C)O)n1 [Example 1.9] | 1 | 520 | –
CC(C)n1c(=O)c2cnc(Nc3ccc4c(c3)CNCC4)nc2n1-c1cccc(C(C)(C)O)n1 [Example 1.10] | 2 | 510 | 340
CC(C)(O)c1cccc(-n2c3nc(Nc4ccc5c(c4)CNCC5)ncc3c(=O)n2CC2CC2)n1 [Example 1.11] | 2 | 1180 | 430
CCn1c(=O)c2cnc(Nc3ccc4c(c3)CNCC4(C)C)nc2n1-c1cccc(C(C)(C)O)n1 [Example 1.13] | 1.5 | 895 | 1000
CCn1c(=O)c2cnc(Nc3ccc4c(c3)CN(C(=O)CO)CC4(C)C)nc2n1-c1cccc(C(C)(C)O)n1 [Example 1.14] | 1 | 1620 | –
CCCn1c(=O)c2cnc(Nc3ccc4c(c3)CNCC4)nc2n1-c1cccc(C(C)(C)O)n1 [Example 1.15] | 1.5 | 1200 | 560
CC(C)(O)c1cccc(-n2c3nc(Nc4ccc5c(c4)CNCC5)ncc3c(=O)n2C2CC2)n1 [Example 1.17] | 9.5 | 9060 | 2320
CC(C)(C)c1cc(-n2c3nc(Nc4ccc5c(c4)CNCC5)ncc3c(=O)n2C2CC2)ccn1 [Example 1.160] | 30 | – | 3980
CC(C)n1c(=O)c2cnc(Nc3ccc4c(c3)CNCC43CC3)nc2n1-c1ccnc(C(C)(C)C)c1 [Example 1.161] | 4 | – | 240
CC(C)n1c(=O)c2cnc(Nc3ccc4c(c3)CNCC4(C)C)nc2n1-c1ccnc(C(C)(C)C)c1 [Example 1.162] | 11 | – | 385
CC(C)n1c(=O)c2cnc(Nc3ccc4c(c3)CCNC4)nc2n1-c1ccnc(C(C)(C)F)c1 [Example 1.163] | 15 | – | 720
CC(C)n1c(=O)c2cnc(Nc3ccc4c(c3)CC(N(C)C)C4)nc2n1-c1ccnc(C(C)(C)C)c1 (stereo not drawn) [Example 1.164] | 8 | – | 485
CC(C)n1c(=O)c2cnc(Nc3ccc4c(c3)CNC4)nc2n1-c1ccnc(C(C)(C)C)c1 [Example 1.165] | 14 | – | 1570
CC(C)n1c(=O)c2cnc(Nc3ccc4c(c3)CCNC4)nc2n1-c1ccc(F)cc1 [Example 1.166] | 29 | – | 4130
CC(C)n1c(=O)c2cnc(Nc3ccc4c(c3)CNCC4)nc2n1-c1ccc(F)cc1 [Example 1.167] | 41 | – | 2060
CC(C)n1c(=O)c2cnc(Nc3ccc4c(c3)NCCC4)nc2n1-c1ccnc(C(C)(C)F)c1 [Example 1.168] | 4150 | – | 4000
CC(C)n1c(=O)c2cnc(Nc3ccc4c(c3)CNCC4)nc2n1-c1ccnc(C(C)(C)F)c1 [Example 1.169] | 16 | – | 2740
CC(C)n1c(=O)c2cnc(Nc3ccc4c(c3)CCC(N(C)C)C4)nc2n1-c1ccnc(C(C)(C)C)c1 (stereo not drawn) [Example 1.170, 1-(2-tert-butylpyridin-4-yl)-6-{[6-(dimethylamino)-5,6,7,8-tetrahydronaphthalen-2-yl]amino}-2-(propan-2-yl)-1H,2H,3H-pyrazolo[3,4-d]pyrimidin-3-one] | 12 | – | 775
CC(C)n1c(=O)c2cnc(Nc3ccc4c(c3)CC(N(C)C)CC4)nc2n1-c1ccnc(C(C)(C)C)c1 (stereo not drawn) [Example 1.171] | 6 | – | 735
CC(C)n1c(=O)c2cnc(Nc3ccc4c(c3)CCNC4)nc2n1-c1ccnc(N(C)C)c1 [Example 1.172] | 12 | – | 1350
COC(=O)N1CCc2cc(Nc3ncc4c(=O)n(C(C)C)n(-c5ccnc(C(C)(C)C)c5)c4n3)ccc2C1 [Example 1.173] | 343 | – | 2330
CC(C)(C)c1cc(-n2c3nc(Nc4ccc5c(c4)CNCC5)ncc3c(=O)n2CC(F)(F)F)ccn1 [Example 1.174] | 108 | – | 4000
CC(C)n1c(=O)c2cnc(Nc3ccc4c(c3)CCNC4)nc2n1-c1ccc(N(C)C)c(C(C)(C)C)c1 [Example 1.175] | 156 | – | 1160

SMILES | IC50 [1] [nM] | IC50 [2] [nM] | IC50 [3] [nM]
CC(C)n1c(=O)c2cnc(Nc3ccc4c(c3)CCNC4(C)C)nc2n1-c1ccnc(C(C)(C)C)c1 [Example 1.176] | 8 | – | 595
CC(C)n1c(=O)c2cnc(Nc3ccc4c(c3)CCNC4)nc2n1-c1ccnc(N(C)S(C)(=O)=O)c1 [Example 1.177] | 12 | – | 1970
CC(C)n1c(=O)c2cnc(Nc3ccc4c(c3)CCNC4)nc2n1-c1ccnc(C(C)(C)O)c1 [Example 1.178] | 14 | – | 6200
CC(C)n1c(=O)c2cnc(Nc3ccc4c(c3)CCNC4)nc2n1-c1ccc(F)c(C(C)(C)O)c1 [Example 2.185] | 34 | – | 1540
CC(C)n1c(=O)c2cnc(Nc3ccc4c(c3)CNCC4)nc2n1-c1ccc(F)c(C(C)(C)O)c1 [Example 2.186] | 24 | – | 905
CC(C)n1c(=O)c2cnc(Nc3ccc4c(c3)CCNC4(C)C)nc2n1-c1ccnc(C(C)(C)F)c1 [Example 2.187] | 12 | – | 435
CC(C)n1c(=O)c2cnc(Nc3ccc4c(c3)CNCC4)nc2n1-c1ccn(C2CC2)n1 [Example 2.189] | 43 | – | 1990
CC(C)n1c(=O)c2cnc(Nc3ccc4c(c3)CNCC4)nc2n1-c1cc(C(C)(C)C)ccn1 [Example 2.287] | 120 | – | 1960
CC(C)n1c(=O)c2cnc(Nc3ccc4c(c3)CCNC4)nc2n1-c1cc(C(C)(C)C)ccn1 [Example 2.288] | 217 | – | 2580
CC(C)n1c(=O)c2cnc(Nc3ccc4c(c3)CCNC4)nc2n1-c1ccn(C)n1 [Example 2.289] | 49 | – | 8760
CC(C)n1c(=O)c2cnc(Nc3ccc4c(c3)CCNC4)nc2n1-c1ccc(F)cn1 [Example 2.290] | 90 | – | 3370
CC(C)n1c(=O)c2cnc(Nc3ccc4c(c3)CNCC4)nc2n1-c1ccc(F)cn1 [Example 2.291] | 46 | – | 7990
CC(C)n1c(=O)c2cnc(Nc3ccc4c(c3)CNCC4)nc2n1-c1ccn(C)n1 [Example 2.292] | 43 | – | 13300
COC(C)(C)c1cc(-n2c3nc(Nc4ccc5c(c4)CCNC5)ncc3c(=O)n2C(C)C)ccn1 [Example 2.293] | > 3650 | – | > 30000
CC(C)(F)c1cc(-n2c3nc(Nc4ccc5c(c4)CNCC5(C)C)ncc3c(=O)n2C2CC2)ccn1 [Example 2.605] | 123 | – | 5960
CC(C)n1c(=O)c2cnc(Nc3ccc4c(c3)CCNC4(C)C)nc2n1-c1cccc(N(C)S(C)(=O)=O)n1 [Example 2.642] | 6 | – | 2460
CC(C)n1c(=O)c2cnc(Nc3ccc4c(c3)CCNC4(C)C)nc2n1-c1ccn(C2CC2)n1 [Example 2.643] | 26 | – | 2180
CC(C)n1c(=O)c2cnc(Nc3ccc4c(c3)CCN(C)C4)nc2n1-c1ccnc(C(C)(C)C)c1 [Example 2.644] | 5 | – | 2330
CC(C)n1c(=O)c2cnc(Nc3ccc4c(c3)CCNC4)nc2n1-c1cccc(N(C)S(C)(=O)=O)n1 [Example 2.645] | 5 | – | 4010
CC(C)n1c(=O)c2cnc(Nc3ccc4c(c3)CNCC4(C)C)nc2n1-c1ccn(C2CC2)n1 [Example 2.646] | 15 | – | 4370
CC(C)n1c(=O)c2cnc(Nc3ccc4c(c3)CCNC4)nc2n1-c1ccsc1 [Example 2.647] | 10 | – | 2650
CC(C)n1c(=O)c2cnc(Nc3ccc4c(c3)CNCC4)nc2n1-c1cccc(C(C)(C)C#N)n1 [Example 3.035] | 2 | – | 420
CC(C)n1c(=O)c2cnc(Nc3ccc4c(c3)CCNC4)nc2n1-c1cccc(C(C)(C)C#N)n1 [Example 3.036] | 5 | – | 250
